Like-named read-outs stand apart in the source and are kept apart here. Where no end group is shown, it is not given here.
Legend:
A549 cancer cells = experiment: Cytotoxicity of 14α in presence or absence of antioxidants (ROS involvement); type: cell-based, human; details: A549, 48 h
Protocol: It is known that cancer cells have higher basal levels of reactive oxygen species (ROS) than normal cells, making them more sensitive to exogenous induction of ROS.[33] […] Therefore, we decided to study whether the generation of ROS was involved in the selective cytotoxic effect of 14α. A549 cancer cells were treated with 14α for 48 h in the presence or absence of three antioxidants: N-acetylcysteine (antioxidant activity through the glutathione system), catalase (hydrogen peroxide-degrading enzyme), and Mn(III) tetrakis(1-methyl-4-pyridyl)porphyrin pentachloride (MnTMPyP; superoxide anion scavenger).

A549 cells [1] = experiment: Glycolysis inhibition: glucose consumption and lactate production; type: cell-based, human; details: A549 cells exposed for 8 h
Protocol: Our next aim was to study the possible mechanisms involved in the selective anticancer activity of 14α. Because tumor cells rely on glycolysis for survival more than normal cells,[32] we evaluated if our compound behaved as a glycolysis inhibitor. Since glycolysis consumes glucose and produces lactate, we measured the concentrations of glucose and lactate in untreated A549 cells and in cells exposed for 8 h to 14α and to the known glycolysis inhibitor dichloroacetate.
Glycolysis inhibition was assessed by measuring concentrations of glucose ([…] of glycolysis) and lactate (final product of glycolysis) in control and treated cells. Briefly, 4 × 10^5 cells were seeded into 24-well plates. After 10 h, the medium of cells was renewed and drugs were added. Cells were exposed to the tested compounds for 8 h, and glucose and lactate concentrations were determined in cell supernatants using the Accutrend Plus analyzer together with Accutrend glucose strips and BM-Lactate strips (Roche Diagnostics). […] Results are expressed as a percentage of lactate production and percentage of glucose consumption in relation to untreated cells and are shown as the means ± SEM of two independent experiments.

[2] = tested on: A549 human lung cancer cells; experiment: MTT cytotoxicity assay, 48 h, A549 cells; type: cell-based; details: for IC50: read-out: IC50 (mean ± SEM) A549 (cancer)
Text: (§1) First, we evaluated the cytotoxicity of our carbohydrate derivatives against MRC-5 human nonmalignant lung cells and A549 human lung cancer cells using the 3-(4,5-dimethylthiazol-2-yl)-2,5-diphenyltetrazolium bromide (MTT) assay under the same experimental conditions.
(§2) Cell viability was estimated with the 3-(4,5-dimethylthiazol-2-yl)-2,5-diphenyltetrazolium bromide (MTT) assay or the resazurin assay. Both assays are redox-based colorimetric techniques based on the capability of viable cells to reduce the yellow product MTT or the blue reagent resazurin into a purple formazan dye or a pink-colored product, respectively. The number of live cells is directly proportional to the amount of the final product created. Exponentially growing cells were seeded in 96-well plates and were allowed to grow during 24 h. The cells were then treated with several concentrations of the tested compounds for 48–96 h (the incubation periods are specified in the figures and table legends) before measuring the cell viability using the MTT assay or the resazurin assay.
(§3) Then, 80 μL of 20% sodium dodecyl sulfate (SDS) in 20 mM HCl was added to dissolve the insoluble purple formazan product and plates were incubated for 15 h at 37 °C. The optical density (OD) of each well was measured at 540 nm with a multiwell plate spectrophotometer reader to quantify cell survivals.
In both assays, results were expressed as the percentage of cell viability in relation to untreated cells (controls). All data were averaged from two to five independent experiments and were expressed as the means ± standard error of the mean (SEM). For statistical analysis, the t-test (paired, two-tailed) was used. A p value >0.05 is not considered statistically significant and is not represented by any symbol, a p value <0.05 is considered statistically significant and is indicated with an asterisk (*), a p value <0.01 is indicated with a double asterisk (**), and a p value <0.001 is indicated with a triple asterisk (***).

[3] = tested on: MRC-5 human nonmalignant lung cells; experiment: MTT cytotoxicity assay, 48 h, MRC-5 cells; type: cell-based
Text: as §1
Cell viability was estimated with the 3-(4,5-dimethylthiazol-2-yl)-2,5-diphenyltetrazolium bromide (MTT) assay or the resazurin assay. Both assays are redox-based colorimetric techniques based on the capability of viable cells to reduce the yellow product MTT or the blue reagent resazurin into a purple formazan dye or a pink-colored product, respectively. The number of live cells is directly proportional to the amount of the final product created. Exponentially growing cells were seeded in 96-well plates and were allowed to grow during 24 h. […]
as §3
In both assays, results were expressed as the percentage of cell viability in relation to untreated cells (controls). All data were averaged from two to five independent experiments and were expressed as the means ± standard error of the mean (SEM). […]

HNO97 (tongue cancer) = experiment: Resazurin cell viability assay, 96 h, HNO97; type: cell-based, human
Text: (§4) Cell viability was estimated with the resazurin assay. HaCaT human skin nonmalignant cells were used to study selectivity; these cells are derived from normal adult tissue and have a division rate similar to that of cancer cells.
as §2
(§5) The OD of each well was measured at 540 and 620 nm on a multiwell plate spectrophotometer reader.

HepG2 (hepatocarcinoma) = experiment: Resazurin cell viability assay, 96 h, HepG2; type: cell-based, human
Text: as §4, §2, §5

Sk-OV-3 (ovarian cancer) = experiment: Resazurin cell viability assay, 96 h, Sk-OV-3; type: cell-based, human; details: IC50 HaCaT / IC50 Sk-OV-3
Text: as §4, §2, §5

[4] = tested on: MDA-MB-231 (triple-negative breast cancer); experiment: Resazurin cell viability assay, 96 h, MDA-MB-231; type: cell-based, human; details: IC50 HaCaT / IC50 MDA-MB-231
Text: as §4, §2, §5

T24 (bladder cancer) = experiment: Resazurin cell viability assay, 96 h, T24; type: cell-based, human
Text: as §4, §2, §5

[5] = tested on: KATO III (gastric cancer); experiment: Resazurin cell viability assay, 96 h, KATO III; type: cell-based, human
Text: as §4, §2, §5

HT29 (colorectal cancer) = experiment: Resazurin cell viability assay, 96 h, HT29; type: cell-based, human
Text: as §4, §2, §5

MeWo (melanoma; BRAF WT) = experiment: Resazurin cell viability assay, 96 h, MeWo; type: cell-based, human
Text: as §4, §2, §5

[6] = tested on: AN3Ca (endometrial adenocarcinoma); experiment: Resazurin cell viability assay, 96 h, AN3Ca; type: cell-based, human
Text: as §4, §2, §5

[7] = tested on: A64-CLS (submaxillary gland adenoma); experiment: Resazurin cell viability assay, 96 h, A64-CLS; type: cell-based, human
Text: as §4, §2, §5

[8] = tested on: HaCaT (human skin normal); experiment: Resazurin cell viability assay, 96 h, HaCaT; type: cell-based; details: read-out: IC50 (mean ± SEM) HaCaT
Protocol: Thirteen human cancer cells lines and one human nonmalignant cell line were treated with 14α for 96 h. We used longer exposure times because some of these cell lines have long cell cycles (24–48 h); this longer exposure time allows the cells to pass several cycles in the presence of 14α. Cell viability was estimated with the resazurin assay. HaCaT human skin nonmalignant cells were used to study selectivity; these cells are derived from normal adult tissue and have a division rate similar to that of cancer cells. One key limitation of most anticancer drugs is that, in addition to targeting cancer cells, they also target nonmalignant cells with similar division rates. […] These cell lines were at least 3 times more sensitive than the normal cell line to 14α treatment. HepG2 (hepatocarcinoma) and KATO III (gastric cancer) were at least 9-fold more vulnerable to 14α than HaCaT nonmalignant cells.
Cell viability was estimated with the 3-(4,5-dimethylthiazol-2-yl)-2,5-diphenyltetrazolium bromide (MTT) assay or the resazurin assay. […]
For the resazurin assay, after treatment, the medium was removed and 150 μL of resazurin solution (20 μg/mL in medium) was added to each well for 3–6 h. The OD of each well was measured at 540 and 620 nm on a multiwell plate spectrophotometer reader.

PC-3 (prostate cancer) = experiment: Resazurin cell viability assay, 96 h, PC-3; type: cell-based, human
Text: as §4, §2, §5

[9] = tested on: Sk-Br-3 (HER2-positive breast cancer); experiment: Resazurin cell viability assay, 96 h, Sk-Br-3; type: cell-based, human
Text: as §4, §2, §5

GAMG (glioblastoma) = experiment: Resazurin cell viability assay, 96 h, GAMG; type: cell-based, human
Text: as §4, §2, §5

A549 cells [10] = experiment: Cell proliferation after SP, Resazurin assay, 48 h; type: cell-based, human; details: SP 2.5 - 200 nM
Protocol: Competition Experiments of Cytotoxic effect of in presence of SP. 14α
First, we treated A549 cells with several concentrations of SP (2.5 - 200 nM) for 48 h and we evaluated cell proliferation with the Resazurin assay. Although it has been reported that A549 […]
of SP. The highest SP concentration tested (200 nM) was added 1 h before 32 µM of 14α or Cisplatin. After a 48 h treatment period, the cell viability was determined with the Resazurin […]
Figure S-4. Evaluation of cytotoxic activity of 14α derivative and Cisplatin on A549 lung cancer cells and HaCaT normal cells in presence of SP. Results are representative of at least three independent experiments. Values are expressed in mean with SEM.
1 O'Connor, T.M.; O'Connell, J.; O'Brien, D.I.; Bennett, M.W.; Goode, T.; Burke, L.; Bredin, C.P.; Shanahan,
(1 picture or pasted object on this page, not shown here)

Molecule: C[C@@H](O[C@H]1O[C@@H]2CO[C@@H](c3ccccc3)O[C@@H]2[C@H](O)[C@H]1OCc1ccc(F)cc1)c1cc(C(F)(F)F)cc(C(F)(F)F)c1 [14α, (R)-{1-[3,5-Bis-(trifluoromethyl)phenyl]ethyl} (R)-(4,6-O-Benzylidene)-2-O-p-fluorobenzyl-α-D-galactopyranoside]
- effect of antioxidants (N-acetylcysteine, catalase, MnTMPyP) on cytotoxicity (A549 cancer cells): None of these three antioxidants reduced the cytotoxicity
- glucose consumption and lactate production (glycolysis inhibition) (A549 cells [1]): did not reduce glucose consumption or lactate production

Molecule: C[C@@H](O[C@H]1OCCN(Cc2n[nH]c(=O)[nH]2)[C@H]1c1ccc(F)cc1)c1cc(C(F)(F)F)cc(C(F)(F)F)c1 [Aprepitant]
- IC50 ([2]; Homo sapiens, A549, MTT assay): 18.3 ± 3.4 µM
- IC50 ([3]; Homo sapiens, MRC5, read-out: IC50 (mean ± SEM) MRC-5 (normal)): 28.9 ± 6.8 µM

Molecule: N.N.[Cl][Pt][Cl] [Cisplatin]
- selectivity index (vs HaCaT; mean ± SEM) HNO97 (HNO97 (tongue cancer); IC50 HaCaT / IC50 HNO97, Resazurin): 0.8 ± 0.1
- IC50 (HNO97 (tongue cancer); Resazurin assay, read-out: IC50 (mean ± SEM) HNO97): 2.5 ± 0.4 µM
- selectivity index (vs HaCaT; mean ± SEM) HepG2 (HepG2 (hepatocarcinoma); IC50 HaCaT / IC50 HepG2, Resazurin): 1.2 ± 0.2
- IC50 (HepG2 (hepatocarcinoma); Resazurin assay, read-out: IC50 (mean ± SEM) HepG2): 1.8 ± 0.2 µM
- selectivity index (vs HaCaT; mean ± SEM) Sk-OV-3 (Sk-OV-3 (ovarian cancer)): 0.5 ± 0.2
- selectivity index (vs HaCaT; mean ± SEM) MDA-MB-231 [4]: 0.3 ± 0.1
- selectivity index (vs HaCaT; mean ± SEM) T24 (T24 (bladder cancer); IC50 HaCaT / IC50 T24, Resazurin): 1.3 ± 0.0
- IC50 (T24 (bladder cancer); Resazurin assay, read-out: IC50 (mean ± SEM) T24): 1.6 ± 0.5 µM
- selectivity index (vs HaCaT; mean ± SEM) KATO III ([5]; IC50 HaCaT / IC50 KATO III, Resazurin): 1.2 ± 0.5
- IC50 ([5]; Resazurin assay, read-out: IC50 (mean ± SEM) KATO III): 1.8 ± 0.2 µM
- selectivity index (vs HaCaT; mean ± SEM) HT29 (HT29 (colorectal cancer); IC50 HaCaT / IC50 HT29, Resazurin): 0.4 ± 0.1
- IC50 (HT29 (colorectal cancer); Resazurin assay, read-out: IC50 (mean ± SEM) HT29): 4.9 ± 0.8 µM
- selectivity index (vs HaCaT; mean ± SEM) MeWo (MeWo (melanoma; BRAF WT); IC50 HaCaT / IC50 MeWo, Resazurin): 1.0 ± 0.1
- IC50 (MeWo (melanoma; BRAF WT); Resazurin assay, read-out: IC50 (mean ± SEM) MeWo): 2.2 ± 1.1 µM
- selectivity index (vs HaCaT; mean ± SEM) AN3Ca ([6]; IC50 HaCaT / IC50 AN3Ca, Resazurin): 2.1 ± 1.2
- IC50 ([6]; Resazurin assay, read-out: IC50 (mean ± SEM) AN3Ca): 1.8 ± 1.4 µM
- IC50 ([2]; MTT assay): 13.5 ± 2.7 µM
- selectivity index (IC50 MRC-5 / IC50 A549) ([2]; mean of indices of each individual experiment, MTT): 8.6 ± 3.9
- selectivity index (vs HaCaT; mean ± SEM) A64-CLS ([7]; IC50 HaCaT / IC50 A64-CLS, Resazurin): 0.5 ± 0.0
- IC50 ([7]; Resazurin assay, read-out: IC50 (mean ± SEM) A64-CLS): 4.5 ± 1.2 µM
- IC50 ([3]; read-out: IC50 (mean ± SEM) MRC-5 (normal)): 99.2 ± 37 µM
- IC50 [8]: 2.1 ± 0.7 µM
- selectivity index (vs HaCaT; mean ± SEM) PC-3 (PC-3 (prostate cancer); IC50 HaCaT / IC50 PC-3, Resazurin): 0.7 ± 0.2
- IC50 (PC-3 (prostate cancer); Resazurin assay, read-out: IC50 (mean ± SEM) PC-3): 3.1 ± 0.2 µM
- selectivity index (vs HaCaT; mean ± SEM) Sk-Br-3 ([9]; IC50 HaCaT / IC50 Sk-Br-3, Resazurin): 0.5 ± 0.1
- IC50 ([9]; Resazurin assay, read-out: IC50 (mean ± SEM) Sk-Br-3): 4.3 ± 0.9 µM
- selectivity index (vs HaCaT; mean ± SEM) GAMG (GAMG (glioblastoma); IC50 HaCaT / IC50 GAMG, Resazurin): 0.7 ± 0.0
- IC50 (GAMG (glioblastoma); Resazurin assay, read-out: IC50 (mean ± SEM) GAMG): 3.2 ± 0.9 µM

Molecule: substance P (RPKPQQFFGLM-NH2; ends and bridges not checked; also: 125I label, position not given here) [SP]
- cell proliferation after addition of SP (A549 cells [10]): did not observe any increase in cell proliferation
